Activity data for two compounds are collected here from ChEMBL document CHEMBL2203118, “Ethyl 2,4,6-trihydroxybenzoate is an agonistic ligand for liver X receptor that induces cholesterol efflux from macrophages without affecting lipid accumulation in HepG2 cells” (Bioorg Med Chem Lett, 2012).

Series [1] deals with HepG2. Kind of series: Upregulation of SREBP-1 gene expression in human HepG2 cells at 1 uM by immunoblot analysis. It counts as ADME, cell-based. Particulars: hepg2, 1 µM.
In series [2] the test system is HepG2. Kind of series: Upregulation of SREBP-1 gene expression in human HepG2 cells at 1 uM by qPCR analysis. Format: ADME, cell-based. The conditions noted are these: hepg2, 1 µM. Background: Real-time PCR tracks product formation cycle by cycle.
In series [3] the test system is HepG2. Kind of series: Induction of lipid accumulation in human HepG2 cells assessed as increase in cellular triglyceride level at 1 uM by Oil Red O staining relative to control. It counts as cell-based. Particulars: hepg2, 1 µM.
The subject of series [4] is HepG2. Kind of series: Upregulation of FAS gene expression in human HepG2 cells at 1 uM by qPCR analysis. Format: ADME, cell-based. The conditions noted are these: hepg2, 1 µM.
The test system of series [5] is HepG2. Kind of series: Induction of lipid accumulation in human HepG2 cells assessed as cellular triglyceride concentration at 1 uM. Format: cell-based. The conditions noted are these: hepg2, 1 µM.
The subject of series [6] is HepG2. Kind of series: Upregulation of SCD1 gene expression in human HepG2 cells at 1 uM by qPCR analysis. It counts as ADME, cell-based. Particulars: hepg2, 1 µM.
Series [7] deals with T1, Peroxisome proliferator-activated receptor alpha (Homo sapiens) (UniProt Q07869).
T1 sequence (whole entry): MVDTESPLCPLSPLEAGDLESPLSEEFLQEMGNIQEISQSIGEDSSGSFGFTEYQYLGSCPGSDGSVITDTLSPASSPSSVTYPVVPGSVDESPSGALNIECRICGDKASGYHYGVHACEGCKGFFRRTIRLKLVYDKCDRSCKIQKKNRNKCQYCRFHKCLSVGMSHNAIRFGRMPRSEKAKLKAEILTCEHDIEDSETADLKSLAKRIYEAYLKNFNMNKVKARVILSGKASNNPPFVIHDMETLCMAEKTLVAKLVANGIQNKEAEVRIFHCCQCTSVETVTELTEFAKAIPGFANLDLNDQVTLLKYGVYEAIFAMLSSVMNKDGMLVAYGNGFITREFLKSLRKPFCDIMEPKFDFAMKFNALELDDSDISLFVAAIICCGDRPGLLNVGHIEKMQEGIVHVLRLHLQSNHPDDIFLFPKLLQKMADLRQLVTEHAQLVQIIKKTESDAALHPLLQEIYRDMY
Kind of series: Transactivation of PPAR-alpha transfected in HEK293 cells at 10 uM after 24 hrs by luciferase reporter gene assay. It counts as cell-based. For orientation: In a reporter assay the amount or activity of a reporter protein is the signal.

Calls of active or inactive are those of the source. No cut-off for these calls is given here.

For the compound `O=S(=O)(c1ccccc1)N(CC(F)(F)F)c1ccc(C(O)(C(F)(F)F)C(F)(F)F)cc1` [T091317], the Activity entry in the series on HepG2 [1], in the series on HepG2 [2], in the series on HepG2 [3], in the series with HepG2 [4], with HepG2 [5] and in the series on HepG2 [6] was “Toxic” in each case.
As for `CC(C)(Oc1ccc(C(=O)c2ccc(Cl)cc2)cc1)C(=O)O`, the outcome in series [7] was Active.
